# Assay results published in patent US20250268903A1, “RXFP1 AGONISTS” (BRISTOL-MYERS SQUIBB COMPANY, priority 2021, published 2025).
# pEC50: −log10 of the molar value.
# Molecular target: T1, human RXFP1 (Homo sapiens, UniProt Q9HBX9)
# T1 construct: expressed in transfected cells
# T1 sequence (Q9HBX9 1-757): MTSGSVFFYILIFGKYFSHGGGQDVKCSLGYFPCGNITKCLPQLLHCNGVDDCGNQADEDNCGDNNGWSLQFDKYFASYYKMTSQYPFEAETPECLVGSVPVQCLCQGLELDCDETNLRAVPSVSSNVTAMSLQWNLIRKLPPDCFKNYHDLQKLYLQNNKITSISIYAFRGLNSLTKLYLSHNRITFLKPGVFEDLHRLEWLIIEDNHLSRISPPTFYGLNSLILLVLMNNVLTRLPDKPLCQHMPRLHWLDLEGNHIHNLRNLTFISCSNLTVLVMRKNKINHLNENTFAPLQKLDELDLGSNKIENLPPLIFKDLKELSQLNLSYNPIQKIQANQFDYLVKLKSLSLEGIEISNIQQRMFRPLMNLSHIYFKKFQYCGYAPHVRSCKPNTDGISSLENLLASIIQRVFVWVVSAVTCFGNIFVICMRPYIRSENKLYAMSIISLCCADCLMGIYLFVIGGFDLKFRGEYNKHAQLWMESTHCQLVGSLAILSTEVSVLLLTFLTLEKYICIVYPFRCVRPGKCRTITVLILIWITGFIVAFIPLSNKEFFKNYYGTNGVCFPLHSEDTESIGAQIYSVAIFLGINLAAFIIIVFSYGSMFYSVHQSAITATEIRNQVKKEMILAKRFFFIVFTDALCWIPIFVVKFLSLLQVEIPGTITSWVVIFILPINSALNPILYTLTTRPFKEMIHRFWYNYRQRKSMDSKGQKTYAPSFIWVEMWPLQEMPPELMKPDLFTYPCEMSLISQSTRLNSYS
# Assay: hRXFP1 HEK293 cAMP assay (HTRF)
# Type: cell-based
# Settings: HEK293 cells stably expressing human RXFP1, 30 min at room temperature
# In short: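 HEK293 cells stably expressing human RXFP1 (1500 cells/well) in HBSS/20 mM HEPES/0.05% BSA/0.5 mM IBMX. Compounds were tested at 0.010 nM–50 μM final (2% DMSO) for 30 min at room temperature. cAMP was measured by HTRF and values derived by 4-parameter logistic fit.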
row,Molecule,pEC50
1,"COC(=O)C1CC(c2ccc(OC)c(C(=O)N[C@H]3[C@@H](C(=O)Nc4ccc(F)c(C(F)(F)F)c4)[C@H]4CC[C@@H]3/C4=C\C3CC3)c2)C1 (single isomer, unassigned) [Example 332]",6.95
2,"COc1ccc(COC2(C(=O)O)CC2)cc1C(=O)N[C@@H]1C2CCC(/C2=C/C2CC2)[C@@H]1C(=O)Nc1ccc(F)c(C(F)(F)F)c1 (stereo partly drawn) [Example 18, 1-[(3-{[(2R,3S,7Z)-7-(cyclopropylmethyli-dene)-3-{[4-fluoro-3-(trifluoromethyl)phe-nyl]carbamoyl}bicy-clo[2.2.1]heptan-2-yl]carbamoyl}-4-methoxyphenyl)meth-oxy]cyclopropane-1-carboxylic acid]",6.91
3,"CCCC/C=C1\C2CCC1[C@H](C(=O)Nc1ccc(F)c(C(F)(F)F)c1)[C@@H]2NC(=O)c1cc(CCC(C)(C)O)ccc1OC (stereo partly drawn) [Example 89, (2S,3R,7Z)-N-[4-fluoro-3-(trifluoromethyl)phe-nyl]-3-[5-(3-hydroxy-3-methylbutyl)-2-methoxybenzamido]-7-pentylidenebicyclo [2.2.1]heptane-2-carboxamide]",7.35
4,"COc1ccc(CCC(C)(C)O)cc1C(=O)NC1C2CCC(/C2=C/CC2CCC2)[C@@H]1C(=O)Nc1ccc(F)c(C(F)(F)F)c1 (some centres unmarked) [Example 174, (7Z)-7-(2-cyclobutylethylidene)-N-[4-fluoro-3-(trifluoromethyl)phe-nyl]-3-[5-(3-hydroxy-3-methylbutyl)-2-methoxybenzamido] bicyclo[2.2.1]heptane-2-carboxamide]",7.18
5,"COc1ccc(CC[C@H](C)O)cc1C(=O)N[C@@H]1C2CCC(/C2=C/C2CC2)[C@@H]1C(=O)Nc1ccc(F)c(C(F)(F)F)c1 (stereo partly drawn) [Example 94, (2S,3R,7Z)-7-(cyclopropylmethyli-dene)-N-[4-fluoro-3-(trifluoromethyl)phe-nyl]-3-{5-[(3S)-3-hydroxybutyl]-2-methoxybenzamido} bicyclo[2.2.1]heptane-2-carboxamide]",7.21
6,"(2S,3R,7Z)-7- butylidene-N-[4- fluoro-3- (trifluoromethyl)phe- nyl]-3-[5-(3- hydroxy-3- methylbutyl)-2- methoxybenzamido] bicyclo[2.2.1]heptane- 2-carboxamide [Example 88]",7.55
7,"COc1ccc(CCCCCCC#N)cc1C(=O)NC1C2CCC(/C2=C/C(F)(F)F)[C@@H]1C(=O)Nc1ccc(F)c(C(F)(F)F)c1 (some centres unmarked) [Example 184, (7Z)-3-[5-(6-cyanohexyl)-2-methoxybenzamido]-N-[4-fluoro-3-(trifluoromethyl)phe-nyl]-7-(2,2,2-trifluoroethylidene)bi-cyclo[2.2.1]heptane-2-carboxamide]",6.60
8,"COc1ccc(COC2=NOC3COCC23)cc1C(=O)N[C@H]1[C@@H](C(=O)Nc2ccc(F)c(C(F)(F)F)c2)[C@H]2CC[C@@H]1/C2=C\C1CC1 (stereo partly drawn) [Example 300, (1R,2S,3R,4R,7Z)-3-[5-({3aH,4H,6H,6aH-furo[3,4-d][1,2]oxazol-3-yloxy}methyl)-2-methoxybenzamido]-7-(cyclopropylmethylidene)-N-[4-fluoro-3-(trifluoromethyl)phenyl]bicyclo[2.2.1] heptane-2-carboxamide]",6.69
9,"COC/C=C/c1ccc(OC)c(C(=O)N[C@@H]2C3CCC(C3=C(C)C)[C@@H]2C(=O)Nc2ccc(F)c(C(F)(F)F)c2)c1 (stereo partly drawn) [Example 31, (2S,3R)—N-[4-fluoro-3-(trifluoromethyl)phenyl]-3-{2-methoxy-5-[(1E)-3-methoxyprop-1-en-1-yl]benzamido}-7-(propan-2-ylidene) bicyclo[2.2.1]heptane-2-carboxamide]",6.74
10,"COc1ccc(C#CCCOC(=O)NC2CCC2)cc1C(=O)N[C@@H]1C2CCC(/C2=C/C(F)(F)F)[C@@H]1C(=O)Nc1ccc(F)c(C(F)(F)F)c1 (stereo partly drawn) [Example 79, 4-(3-{[(2R,3S,7Z)-3-{[4-fluoro-3-(trifluoromethyl)phe-nyl]carbamoyl}-7-(2,2,2-trifluoroethylidene)bi-cyclo[2.2.1]heptan-2-yl]carbamoyl}-4-methoxyphenyl)but-3-yn-1-yl N-cyclobutylcarbamate]",6.98
11,"COc1ccc(COCCC(=O)O)cc1C(=O)N[C@@H]1C2CCC(C2=C(C)C)[C@@H]1C(=O)Nc1ccc(F)c(C(F)(F)F)c1 (stereo partly drawn) [Example 30, 3-[(3-{[(2R,3S)-3-{[4-fluoro-3-(trifluoromethyl)phe-nyl]carbamoyl}-7-(propan-2-ylidene)bicyclo[2.2.1]heptan-2-yl]carbamoyl}-4-methoxyphenyl)meth-oxy]propanoic acid]",6.15
12,"COc1ccc(C(=O)NC(C)(C)C)cc1C(=O)N[C@H]1[C@@H](C(=O)Nc2ccc(F)c(C(F)(F)F)c2)[C@H]2CC[C@@H]1/C2=C\C1CC1 [Example 236, N1-tert-butyl-N3-[(1R,2R,3S,4R,7Z)-7-(cyclopropyl-methylidene)-3-{[4-fluoro-3-(trifluoromethyl)phenyl]carbamoyl}bicyclo[2.2.1]heptan-2-yl]-4-methoxybenzene-1,3-dicarboxamide]",6.63
13,"COc1ccc(C23CCC2CC(CO)C3)cc1C(=O)N[C@H]1[C@@H](C(=O)Nc2ccc(F)c(C(F)(F)F)c2)[C@H]2CC[C@@H]1/C2=C\C1CC1 (stereo partly drawn) [Example 353, (1R,2S,3R,4R,7Z)-7-(cyclopropyl-methylidene)-N-[4-fluoro-3-(trifluoromethyl)phenyl]-3-{5-[3-(hydroxymethyl)bicyclo[3.2.0]heptan-1-yl]-2-methoxybenzamido} bicyclo[2.2.1]heptane-2-carboxamide]",6.74

# Now from value to molecule:
row,pEC50,Molecule
1,6.22,"COC(=O)/C=C\c1ccc(OC)c(C(=O)N[C@H]2[C@@H](C(=O)Nc3ccc(F)c(C(F)(F)F)c3)[C@H]3CC[C@@H]2/C3=C\C(F)(F)F)c1 [Example 304, methyl (2Z)-3-(3-{[(1R,2R,3S,4R,7Z)-3-{[4-fluoro-3-(trifluoromethyl)phenyl]carbamoyl}-7-(2,2,2-trifluoroethylidene)bicyclo[2.2.1]heptan-2-yl]carbamoyl}-4-methoxyphenyl) prop-2-enoate]"
2,6.85,"COc1ccc(CC(C)CO)cc1C(=O)N[C@@H]1C2CCC(/C2=C/C(F)(F)F)[C@@H]1C(=O)Nc1ccc(F)c(C(F)(F)F)c1 (single isomer, unassigned) [Example 66]"
3,6.97,"COc1ccc(CCCNC(=O)[C@@H](C)O)cc1C(=O)N[C@H]1[C@@H](C(=O)Nc2ccc(F)c(C(F)(F)F)c2)[C@H]2CC[C@@H]1/C2=C\C(F)(F)F [Example 111, (1R,2S,3R,4R,Z)—N-(4-fluoro-3-(trifluoromethyl)phenyl)-3-(5-(3-((R)-2-hydroxypropanamido)propyl)-2-methoxybenzamido)-7-(2,2,2-trifluoroethylidene) bicyclo[2.2.1]heptane-2-carboxamide]"
4,6.04,"COc1ccc(S(=O)(=O)NC[C@H](C)O)cc1C(=O)N[C@@H]1C2CCC(/C2=C/C(F)(F)F)[C@@H]1C(=O)Nc1ccc(F)c(C(F)(F)F)c1 (stereo partly drawn) [Example 197, (1R,2S,3R,4R,Z)—N-(4-fluoro-3-(trifluoromethyl)phenyl)-3-(5-(N—((S)-2-hydroxypropyl)sulfamoyl)-2-methoxybenzamido)-7-(2,2,2-trifluoroethylidene) bicyclo[2.2.1]heptane-2-carboxamide]"
5,6.22,"COc1ccc(CCCC(F)(F)F)cc1C(=O)NC1C2CCC(/C2=C/C(F)(F)F)[C@@H]1C(=O)Nc1ccc(F)c(C(F)(F)F)c1 (some centres unmarked) [Example 185, (7Z)-N-[4-fluoro-3-(trifluoromethyl)phe-nyl]-3-[2-methoxy-5-(4,4,4-trifluorobutyl)benza-mido]-7-(2,2,2-trifluoroethylidene)bi-cyclo[2.2.1]heptane-2-carboxamide]"
6,6.48,"COc1ccc(S(=O)(=O)N2CCOC[C@@H]2CO)cc1C(=O)N[C@H]1[C@@H](C(=O)Nc2ccc(F)c(C(F)(F)F)c2)[C@H]2CC[C@@H]1/C2=C\C(F)(F)F [Example 213, (1R,2S,3R,4R,7Z)-N-[4-fluoro-3-(trifluoromethyl)phenyl]-3-(5-{[(3S)-3-(hydroxymethyl)morpholin-4-yl]sulfonyl}-2-methoxybenzamido)-7-(2,2,2-trifluoroethylidene) bicyclo[2.2.1] heptane-2-carboxamide]"
7,7.09,"COc1ccc(CCCCCO)cc1C(=O)N[C@@H]1C2CCC(/C2=C/C(F)(F)F)[C@@H]1C(=O)Nc1ccc(F)c(C(F)(F)F)c1 (stereo partly drawn) [Example 97, (2S,3R,7Z)-N-[4-fluoro-3-(trifluoromethyl)phe-nyl]-3-[5-(5-hydroxypentyl)-2-methoxybenzamido]-7-(2,2,2-trifluoroethylidene)bi-cyclo[2.2.1]heptane-2-carboxamide]"
